Where “and” joins values, the source holds several entries; their conditions need not be identical. Identical values can stand only once. Like-named read-outs stand apart in the source and are kept apart here.

The values below come from article PMC10541190 (The Journal of Clinical Investigation, 2023).

Data set [1] deals with SARS-CoV-2 (USA-WA1/2020). In words: microbe, parasite or virus in culture. The class given is cell-based. The conditions noted are these: for EC50: Severe acute respiratory syndrome coronavirus 2, Vero, 24 h, read-out: SARS-CoV-2 EC50.
Data set [2] deals with VEEV (TC-83). The class given is cell-based.
Data set [3] has as its system DENV2. The class given is cell-based.
Data set [4] in a line: in vitro. The conditions noted are these: African green monkey; for viability at 0.625 µM / viability at 1.25 µM / viability at 5 µM / viability at 20 µM: Cell viability (%).
Data set [5] in a line: in vitro. The conditions noted are these: human, Huh7 cell viability (%).
For data set [6], the system named is SARS-CoV-2 (Belgium-GHB-03021). It is filed as cell-based.
Data set [7] can be described thus: in vitro. The conditions noted are these: human, U-87 MG cell viability (%).
The subject of data set [8] is Vero cells.

As usually defined, the EC50 is the concentration that produces a half-maximal response. The viability is a read-out of living cells in per cent, often relative to untreated cells. As to `[N-]=[N+]=CC(=O)OC[C@H](N)C(=O)O` [Azaserine], the EC50 in data set [1] came to 700 nM. Also, the “replication of TC-83” value in data set [2] was “dose-dependently inhibited replication”. For the same compound, in data set [3], the “replication of DENV2” value is recorded as “dose-dependently inhibited replication”. The same compound had a CC50 in data set [4] of over 20 µM. Also, in data set [5], the viability at 0.37 µM worked out at 114%, the viability at 3.33 µM amounted to 69.5%, the viability at 10 µM was determined as 60.6% and the viability at […] was determined as 107%.
With `CNc1ccc2oc(C[C@H]3O[C@@]4(CC[C@H]3C)O[C@H]([C@H](C)C(=O)c3ccc[nH]3)[C@H](C)C[C@H]4C)nc2c1C(=O)O` [Calcimycin], the EC50 in data set [1] worked out at 600 nM. Also, in data set [2], the “replication of TC-83” value is reported as “dose-dependently inhibited replication”. For the same compound, the “replication of DENV2” value in data set [3] is “dose-dependently inhibited replication”. The compound also had a CC50 in data set [4] of over 20 µM. In data set [5], the viability at 0.37 µM was 98%; the viability at 3.33 µM worked out at 50.5%; the viability at 10 µM is 23.5%; the viability at […] was 77.7% and 102%.
As to `O=C1NCN(c2ccccc2)C12CCN(CCCC(c1ccc(F)cc1)c1ccc(F)cc1)CC2` [Fluspirilene], the EC50 in data set [1] was 15200 nM. Further, the “anti-TC-83 and DENV2 activity compared with anti-SARS-CoV-2 activity” value in data set [2] was “more potent”. Moreover, the CC50 in data set [4] was over 20 µM. In data set [5], the viability at 0.37 µM is 93.4%; the viability at 3.33 µM stood at 87.3%; the viability at 10 µM is 70.9%; the viability at […] is 93.9% and 95.5%.
In the case of `N#C[C@@]1(c2ccc3c(N)ncnn23)O[C@H](CO)[C@@H](O)[C@H]1O` [GS-441524], the “rescue of Vero-eGFP cells from SARS-CoV-2-induced lethality, dose response” value in data set [6] is “dose-dependent anti-SARS-CoV-2 activity”.
For the compound `O[C@H]1[C@H]2c3cc4c(cc3CN3CCC(=C[C@@H]1O)[C@H]23)OCO4` [Lycorine], the EC50 in data set [1] worked out at 500 nM. For the same compound, the “replication of TC-83” value in data set [2] is “dose-dependently inhibited replication”. For the same compound, the “replication of DENV2” value in data set [3] is listed as “dose-dependently inhibited replication”. Also, in data set [4], the CC50 is over 20 µM. For the same compound, in data set [7], the viability at 0.37 µM was found to be 92.9%; the viability at 3.33 µM amounted to 67.1%; the viability at 10 µM came to 61.2%; the viability at […] is 81.7% and 97.3%. Further, in data set [5], the viability at 0.37 µM came to 93.2%; the viability at 3.33 µM was 68.1%; the viability at 10 µM was determined as 66.6%; the viability at […] was 82.9% and 95%.
In the case of `COc1c(O)cc2oc3cc(O)c(CC=C(C)C)c(O)c3c(=O)c2c1CC=C(C)C` [Mangostin, 9H-Xanthen-9-one, 1,3,6-trihydroxy-7-methoxy-2,8-bis (3-methyl-2-butenyl)-], the “Fluorescence (%area)” value in data set [6] came to 102.5 %area.
As for `CC[C@@]1([C@@H]2O[C@@H]([C@H]3O[C@@](O)(CO)[C@H](C)C[C@@H]3C)C[C@@H]2C)CC[C@H]([C@]2(C)CC[C@]3(C[C@H](O)[C@@H](C)[C@@H]([C@@H](C)[C@@H](OC)[C@H](C)C(=O)O)O3)O2)O1` [Monensin], the EC50 in data set [1] came out at 1200 nM. Further, the “replication of TC-83” value in data set [2] was “dose-dependently inhibited replication”. The “replication of DENV2” value in data set [3] is reported as “dose-dependently inhibited replication”. In data set [4], this compound yielded a CC50 of over 20 µM. Moreover, in data set [5], the viability at 0.37 µM was 70.5%; the viability at 3.33 µM was 32.2%; the viability at 10 µM was found to be 22.1%; the viability at […] was 47.9% and 83.7%.
With `CCC(CC)COC(=O)[C@H](C)N[P@](=O)(OC[C@H]1O[C@@](C#N)(c2ccc3c(N)ncnn23)[C@H](O)[C@@H]1O)Oc1ccccc1` [Remdesivir], the “rescue of Vero-eGFP cells from SARS-CoV-2-induced lethality, dose response” value in data set [6] is reported as “dose-dependent anti-SARS-CoV-2 activity”.
Take `CC(C)(C)NCC(O)c1ccc(O)c(CO)c1` (stereo not drawn) [Salbutamol]: in data set [1], the “activity against SARS-CoV-2” value was “minimal to no activity” and the EC50 is over 20000 nM. For the same compound, the “replication of TC-83” value in data set [2] is on record as “minimal to no activity”. Moreover, the “replication of DENV2” value in data set [3] was “minimal to no activity”. In data set [4], the CC50 is over 20 µM.
In the case of `O=C(CCCN1CCC2(CC1)C(=O)NCN2c1ccccc1)c1ccc(F)cc1` [Spipe-rone], in data set [1] (0.625 μM), the “SARS-CoV-2 infection (%)” value is 124.72% and 114.61% and 131.46%. For the same compound, the “SARS-CoV-2 infection (%)” value in data set [1] (1.25 μM) is 107.87% and 117.98% and 101.12%. Besides, the “SARS-CoV-2 infection (%)” value in data set [1] (5 μM) was 15.17% and 17.19% and 12.81%. Besides, the “SARS-CoV-2 infection (%)” value in data set [1] (20 μM) was 0.47% and 0.20% and 0.30%. For the same compound, the “Cell viability (%)” value in data set [8] (0.625 μM) was 94.16% and 92.89%. Further, the “Cell viability (%)” value in data set [8] (1.25 μM) amounted to 101.11%. Moreover, in data set [8] (5 μM), the “Cell viability (%)” value was 96.86% and 95.76%. In addition, in data set [8] (20 μM), the “Cell viability (%)” value was determined as 101.04%. For the same compound, in data set [4], the viability at 0.625 µM is 91.9%, the viability at 1.25 µM stood at 99.9%, the viability at 5 µM amounted to 94.3% and the viability at 20 µM turned out to be 97.4%. For the same compound, in data set [7], the viability at 0.37 µM turned out to be 99.2%; the viability at 3.33 µM was 101%; the viability at 10 µM was 97%; the viability at […] was 99.5% and 99.9%.
For the compound `COc1ccc2cc1Oc1ccc(cc1)C[C@H]1c3cc(c(OC)cc3CCN1C)Oc1c(OC)c(OC)cc3c1[C@H](C2)N(C)CC3` [Tetran-drine], the “SARS-CoV-2 infection (%)” value in data set [1] (0.625 μM) is 107.87% and 117.98% and 101.12%; in data set [1] (1.25 μM), 53.93% and 104.49% and 87.64%; in data set [1] (5 μM), 0.61% and 0.84% and 0.88%; in data set [1] (20 μM) it was 0.00337%. Further, the “Cell viability (%)” value is 99.78% in data set [8] (0.625 μM); 105.40% and 105.65% in data set [8] (1.25 μM); 86.02% and 86.44% in data set [8] (5 μM); 48.98% and 79.18% and 56.10% in data set [8] (20 μM). The viability at 0.625 µM in data set [4] is 94.4%. Further, the viability at 1.25 µM in data set [4] stood at 101%. Also, in data set [4], the viability at 5 µM stood at 83.6%. Also, the viability at 0.37 µM in data set [7] worked out at 101%. The viability at 3.33 µM in data set [7] came out at 101%. Also, the viability at 10 µM in data set [7] came to 98.9%. In data set [7], the viability at […] is 105% and 97.8%.
As for `COc1ccc2cc1Oc1ccc(cc1)C[C@H]1c3cc(c(OC)cc3CCN1C)Oc1c(OC)c(OC)cc3c1[C@H](C2)N(C)CC3` [Tetrandrine, Berbaman, 6,6',7, 12-tetramethoxy-2,2'-dimethyl-, (1β)-], the “Fluorescence (%area)” value in data set [6] is listed as 93.6 %area. Further, the EC50 in data set [1] is 1400 nM. Further, the CC50 in data set [4] is over 20 µM. Also, in data set [5], the viability at 3.33 µM came out at 93.9%; the viability at 10 µM is 44%; the viability at […] was 96.8% and 97%.
Turning to `CC(C)(C)c1cc(/C=C(\C#N)C(N)=S)cc(C(C)(C)C)c1O` [Tyrphos-tin AG 879], in data set [1] (0.625 μM), the “SARS-CoV-2 infection (%)” value is 47.19% and 30.34% and 33.71%. Also, in data set [1] (1.25 μM), the “SARS-CoV-2 infection (%)” value was 7.75% and 5.73% and 5.06%. For the same compound, in data set [1] (5 μM), the “SARS-CoV-2 infection (%)” value is 0.40% and 0.44% and 0.27%. The “SARS-CoV-2 infection (%)” value in data set [1] (20 μM) is 0.00337%. Moreover, the “Cell viability (%)” value in data set [8] (0.625 μM) was 83.52% and 84.00%. In addition, the “Cell viability (%)” value in data set [8] (1.25 μM) was 88.30% and 88.47%. Also, the “Cell viability (%)” value in data set [8] (5 μM) was 78.46% and 79.21%. Besides, the “Cell viability (%)” value in data set [8] (20 μM) is 71.26% and 69.85%. In data set [4], the viability at 0.625 µM amounted to 85.5%, the viability at 1.25 µM was determined as 87.2%, the viability at 5 µM was 78.7% and the viability at 20 µM stood at 71%. Further, in data set [7], the viability at 0.25 µM was 96.7%, the viability at 0.74 µM stood at 85%, the viability at 2.22 µM amounted to 85.2% and the viability at 6.67 µM was found to be 78.3%. Moreover, in data set [7], the viability at 20 µM worked out at 70.1%.
As to `CC(C)(C)c1cc(C=C(C#N)C#N)cc(C(C)(C)C)c1O` [Tyrphostin A9], in data set [1], the EC50 came to 16500 nM. Moreover, the “anti-TC-83 and DENV2 activity compared with anti-SARS-CoV-2 activity” value in data set [2] was “more potent”. For the same compound, the CC50 in data set [4] was over 20 µM. Also, in data set [7], the viability at 0.25 µM was found to be 96.7%, the viability at 0.74 µM is 85%, the viability at 2.22 µM amounted to 85.2% and the viability at 6.67 µM was 78.3%. Further, the viability at 20 µM in data set [7] turned out to be 70.1%. Further, in data set [5], the viability at 0.37 µM turned out to be 101%; the viability at 3.33 µM stood at 89.2%; the viability at 10 µM was determined as 88%; the viability at […] is 90.8% and 98.7%.
As to `CC(C)(C)c1cc(/C=C(\C#N)C(N)=S)cc(C(C)(C)C)c1O` [Tyrphostin AG 879], the 50% effective concentration (EC50) in data set [1] was found to be 600 nM. The “replication of TC-83” value in data set [2] was “dose-dependently inhibited replication”. For the same compound, the “replication of DENV2” value in data set [3] is given as “dose-dependently inhibited replication”. In data set [4], this compound registered a CC50 of over 20 µM. In addition, in data set [5], the viability at 0.37 µM turned out to be 100%; the viability at 3.33 µM turned out to be 98.8%; the viability at 10 µM came out at 95.1%; the viability at […] is 102% and 98.9%.
Regarding `CC[C@@H](C(=O)[C@@H](C)[C@@H](O)[C@H](C)[C@@H]1O[C@@H]([C@@H](CC)C(=O)O)CC[C@@H]1C)[C@H]1O[C@]2(C=C[C@@H](O)[C@]3(CC[C@@](C)([C@H]4CC[C@](O)(CC)[C@H](C)O4)O3)O2)[C@H](C)C[C@@H]1C` [salinomycin], in data set [6], the “Fluorescence (%area)” value is listed as “greater than 15”.
